The compounds below were run against hormone sensitive lipase, HSL (Rattus norvegicus (Rat), UniProt P15304) (assay: HSL inhibition assay). Conditions: partially purified HSL from rat fat cells; [3H]trioleoylglycerol substrate.
Type: biochemical
Description: 1.1. Preparation of the Partially Purified HSL:
Isolated rat fat cells are obtained from epididymal adipose tissue from untreated male rats (Wistar, 220-250 g) by collagenase treatment in accordance with published methods (e.g. S, Nilsson et al., Anal. Biochem. 158, 1986, 399-407; G. Fredrikson et al., J. Biol. Chem. 256, 1981, 6311-6320; H. Tornquist et al., J. Biol. Chem. 251, 1976, 813-819). The fat cells from 10 rats are washed three times by flotation with 50 ml of homogenization buffer ([…] Tris/HCl, pH 7.4, 0.25 M sucrose, 1 mM ETDA, 1 mM DTT, 10 μg/ml leupeptin, 10 μg/ml antipain, 20 μg/ml pepstatin) each time and finally taken up in 10 ml of homogenization buffer. The fat cells are homogenized in a Teflon-in-glass homogenizer (Braun-Melsungen) by 10 strokes at 1500 rpm and 15° C. The homogenate is centrifuged (Sorvall SM24 tubes, 5000 rpm, 10 min, 4° C.). The subnatant between the layer of fat at the top and the pellet is removed and the centrifugation is repeated. The subnatant resulting therefrom is centrifuged again (Sorvall SM24 tubes, 20 000 rpm, 45 min, 4° C.). The subnatant is removed, and 1 g of heparin-Sepharose (Pharmacia-Biotech, CL-6B, washed 5× with 25 mM Tris/HCl, pH 7.4, 150 mM NaCl) is added. After incubation at 4° C. for 60 min (shaking at intervals of 15 min), the mixture is centrifuged (Sorvall SM24 tubes, 3000 rpm, 10 min, 4° C.). The supernatant is adjusted to pH 5.2 by adding glacial acetic acid and is incubated at 4° C. for 30 min. The precipitates are collected by centrifugation (Sorvall SS34, 12 000 rpm, 10 min, 4° C.) and suspended in 2.5 ml of 20 mM Tris/HCl, pH 7.0, 1 mM EDTA, 65 mM NaCl, 13% sucrose, 1 mM DTT, 10 μg/ml leupeptin/pepstatin/antipain. The suspension is dialyzed against 25 mM Tris/HCl, pH 7.4, 50% glycerol, 1 mM DTT, 10 μg/ml leupeptin, pepstatin, antipain at 4° C. overnight and then loaded onto a hydroxyapatite column (0.1 g per 1 ml of suspension, equilibrated with 10 mM potassium phosphate, pH 7.0, 30% glycerol, 1 mM DTT). The column is washed with four volumes of equilibration buffer at a flow rate of 20 to 30 ml/h. The HSL is eluted with one volume of equilibration buffer containing 0.5 M potassium phosphate and then dialyzed (see above) and concentrated 5- to 10-fold by ultrafiltration (Amicon Diaflo PM 10 Filter) at 4° C. The partially purified HSL can be stored at −70° C. for 4 to 6 weeks.
To prepare the substrate, 25-50 μCi of [3H]trioleoylglycerol (in toluene), 6.8 μmol of unlabeled trioleoylglycerol and 0.6 mg of phospholipids (phosphatidylcholine/phosphatidylinositol 3:1 w/v) are mixed, dried with N2 and then taken up in 2 ml of 0.1 M KPi (pH 7.0) by ultrasound treatment (Branson 250, microtip, setting 1-2, 2×1 min with an interval of 1 min). After addition of 1 ml of KPi and renewed ultrasound treatment (4×30 sec on ice with intervals of 30 sec), 1 ml of 20% BSA (in KPi) is added (final concentration of trioleoylglycerol 1.7 mM). For the reaction, 100 μl of substrate solution are pipetted into 100 μl of HSL solution (HSL prepared as above, diluted in 20 mM KPi, pH 7.0, 1 mM EDTA, 1 mM DTT, 0.02% BSA, 20 μg/ml pepstatin, 10 μg/ml leupeptin) and incubated at 37° C. for 30 min. Addition of 3.25 ml of methanol/chloroform/heptane (10:9:7) and of 1.05 ml of 0.1 M K2CO3, 0.1 M boric acid (pH 10.5) is followed by thorough mixing and finally centrifugation (800×g, 20 min). After phase separation, one equivalent of the upper phase (1 ml) is removed and the radioactivity is determined by liquid scintillation measurement.
1.3 Evaluation of the HSL-Inhibitory Effect:
Substances are normally tested in four independent mixtures. The inhibition of the HSL enzymatic activity by a test substance is determined by comparing with an uninhibited control reaction. The IC50 is calculated from an inhibition plot with at least 10 concentrations of the test substance. The GRAPHIT, Elsevier-BIOSOFT software package is used to analyze the data.

Chain of hormone sensitive lipase, HSL (P15304 301-1068, change not shown): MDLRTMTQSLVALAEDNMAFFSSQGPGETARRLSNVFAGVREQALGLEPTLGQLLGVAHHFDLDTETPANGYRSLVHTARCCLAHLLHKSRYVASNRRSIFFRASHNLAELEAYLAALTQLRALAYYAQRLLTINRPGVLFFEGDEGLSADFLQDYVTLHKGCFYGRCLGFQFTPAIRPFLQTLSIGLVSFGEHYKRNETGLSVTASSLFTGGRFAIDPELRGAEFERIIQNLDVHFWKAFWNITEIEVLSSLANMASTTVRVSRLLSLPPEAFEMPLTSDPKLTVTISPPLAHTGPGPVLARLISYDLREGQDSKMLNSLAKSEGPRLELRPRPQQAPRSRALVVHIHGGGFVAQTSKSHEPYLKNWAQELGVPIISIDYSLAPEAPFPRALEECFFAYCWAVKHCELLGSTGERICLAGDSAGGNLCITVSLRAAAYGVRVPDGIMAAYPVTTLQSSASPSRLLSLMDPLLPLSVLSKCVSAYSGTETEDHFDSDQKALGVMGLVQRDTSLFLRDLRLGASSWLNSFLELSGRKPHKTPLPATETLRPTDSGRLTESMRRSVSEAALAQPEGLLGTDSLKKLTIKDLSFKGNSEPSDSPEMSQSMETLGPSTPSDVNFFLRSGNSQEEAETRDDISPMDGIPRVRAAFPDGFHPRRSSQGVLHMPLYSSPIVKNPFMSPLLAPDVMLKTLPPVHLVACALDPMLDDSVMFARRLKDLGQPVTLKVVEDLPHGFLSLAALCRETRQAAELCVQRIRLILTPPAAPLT

`CC1CCN(C(=O)Oc2noc3cc(Cl)ccc23)CC1` [Example 1, 6-Chlorobenzo[d]isoxazol-3-yl 4-methylpiperidine-1-carboxylate] and `O=C(Oc1noc2cc(Cl)ccc12)N1CCC(C(F)(F)F)CC1` [Example 3, 6-Chlorobenzo[d]isoxazol-3-yl 4-trifluoromethylpiperidine-1-carboxylate] are within 1.5-fold of each other in IC50: 0.12 µM for the first, 0.1 µM for the second.

Going from `CC1CCN(C(=O)Oc2noc3ncccc23)CC1` [Example 2, Isoxazolo[5,4-b]pyridin-3-yl 4-methylpiperidine-1-carboxylate] to `CC1CCN(C(=O)Oc2noc3nc(Cl)ccc23)CC1` [Example 10, 6-Chloroisoxazolo[5,4-b]pyridin-3-yl 4-methylpiperidine-1-carboxylate], the IC50 rises from 0.12 µM to 0.67 µM (5.6-fold).

`CC1CCN(C(=O)Oc2nsc3ncccc23)CC1` [Example 4, Isothiazolo[5,4-b]pyridin-3-yl 4-methylpiperidine-1-carboxylate] and `CC1CCN(C(=O)Oc2nsc3ccccc23)CC1` [Example 5, Benzo[d]isothiazol-3-yl 4-methylpiperidine-1-carboxylate] are the same in IC50: 0.1 µM for the first, 0.1 µM for the second.

In the case of `Cc1ccc2c(OC(=O)N3CCC(C)CC3)noc2n1` [Example 11, 6-Methylisoxazolo[5,4-b]pyridin-3-yl 4-methylpiperidine-1-carboxylate], the IC50 is reported as 0.26 µM.

These compounds were tested against endothelial lipase (EL) (Homo sapiens (Human), UniProt Q9Y5X9) (assay: EL inhibition assay). Conditions: EL from conditioned medium of recombinant cell lines (CHO, HEK293); Bodipy phospholipid substrate.
Chain of endothelial lipase (EL) (Q9Y5X9 21-500, species assumed): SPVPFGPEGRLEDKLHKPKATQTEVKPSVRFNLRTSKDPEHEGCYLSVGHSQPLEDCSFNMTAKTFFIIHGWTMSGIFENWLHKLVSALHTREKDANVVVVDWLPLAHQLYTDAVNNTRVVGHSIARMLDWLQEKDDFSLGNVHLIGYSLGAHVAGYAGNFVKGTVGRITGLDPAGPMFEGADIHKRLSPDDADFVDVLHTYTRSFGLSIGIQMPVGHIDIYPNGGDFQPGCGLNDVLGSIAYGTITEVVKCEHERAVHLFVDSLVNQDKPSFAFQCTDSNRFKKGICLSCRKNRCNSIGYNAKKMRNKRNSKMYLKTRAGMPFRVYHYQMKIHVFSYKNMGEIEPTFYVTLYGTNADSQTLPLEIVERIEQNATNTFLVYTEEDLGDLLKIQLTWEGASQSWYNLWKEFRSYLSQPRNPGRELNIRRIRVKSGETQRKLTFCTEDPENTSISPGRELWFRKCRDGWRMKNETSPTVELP
Type: biochemical
From the text: EL is released as secretory protein in high concentration into cell culture medium (conditioned medium) by recombinant cell lines (CHO, HEK293). This is employed as enzyme solution after concentration.
The phospholipase-specific substrate 1,2-bis(4,4-difluoro-5,7-dimethyl-4-bora-3a,4a-diaza-s-indacene-3-undecanoyl)-sn-glycero-3-phosphocholine, (manufacturer Molecular Probes) is used to characterize the enzymatic activity of endothelial lipase and the effect of inhibitors. Hydrolysis of the A1 ester linkage of this phospholipid by the enzyme liberates the fluorescent dye Bodipy which can be detected after separation by thin-layer chromatography on an HPTLC plate (silica gel 60, Merck) or directly in the reaction vessel by measuring the fluorescence.
The substrate solution is prepared by taking up 100 μg of 1,2-bis(4,4-difluoro-5,7-dimethyl-4-bora-3a,4a-diaza-s-indacene-3-undecanoyl)-sn-glycero-3-phospho-choline (manufacturer Molecular Probes), 2.4 mg of tripalmitin (Sigma) and 7.9 mg of DOP—choline (1,2-dioleoyi-sn-glycero-3-phosphocholine) in 393 μl of chloroform and then transferring 157 μl into a fresh reaction vessel. After evaporation of the solvent, the lipid mixture is dissolved in 4 ml of 200 mM TRIS-HCl, 150 mM sodium chloride, pH=7.4, by sonication twice. […] After evaporation of the eluent, the plate is read in a fluorescence scanner. […]

`Cc1ccccc1CNC(=O)Nc1nsc2ccc([N+](=O)[O-])cc12` [Example 7, 1-(2-Methylbenzyl)-3-(5-nitrobenzo[d]isothiazol-3-yl)urea] and `CCCCCCNC(=O)Nc1noc2ccccc12` [Example 8, 1-Benzo[d]isoxazol-3-yl-3-hexylurea] are the same in IC50: 14.6 µM for the first, 14.6 µM for the second.

From patent US8921404B2, “Azole derivatives in the form of lipase and phospholipase inhibitors” (Sanofi, priority 2005, dated 2014)
